We go through 79 compounds from the METLIN SMRT retention time set (Domingo-Almenara et al. 2019).

This data set can be described thus: gradient 5% acetonitrile 3 min, to 50% in 2 min, to 85% in 15 min, held 3 min, 100 µL/min. The settings on record: column: Zorbax Extend-C18 2.1 x 50 mm; eluents: water / acetonitrile, 0.1% formic acid. The method, boiled down:
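Retention time was recorded from adduct peaks, which were picked computationally and each inspected manually. Pure standards ran in mixtures of ~100 molecules on HPLC coupled to a quadrupole time-of-flight mass spectrometer, in positive and negative ionization mode, through a Zorbax Extend-C18 column (2.1 × 50 mm, 1.8 μm) at 100 μL/min. Eluents were water and acetonitrile, each with 0.1% formic acid.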
For the compound `Cc1ccc2c(=O)c(C(=O)N3CCOCC3)cn(CC(=O)NCCC3=CCCCC3)c2n1`, the RP-LC retention time was 713 s. The figure for `O=C(c1cccc(Cl)c1)N1CCN(c2cc(-c3cccs3)[nH]n2)CC1` is 816 s.

`O=C(Nc1cccc(-c2nnc3n2CCCC3)c1)c1cc(C2CC2)[nH]n1`: the RP-LC retention time was found to be 590 s. The figure for `COc1ccc(Cl)cc1NC(=O)c1c(O)c2cccnc2n(-c2ccc(F)cc2)c1=O` is 1280 s.

On to `O=C(NC1CCN(c2cc(-c3ccccc3)[nH]n2)C1)c1ccsc1` (centres undefined), for which the RP-LC retention time was determined as 660 s.

With `COc1ccc(-c2nc3cc(C)ccn3c2NC(=O)COc2ccccc2)cc1`, the RP-LC retention time was 694 s.

In turn, `CCSc1nnc(-c2nn(C)c3c2CN(C(=O)c2ccccc2Cl)CC3)n1C` yielded an RP-LC retention time of 747 s. The figure for `COc1ccccc1-c1nnc(-c2ccc(Cl)c(S(=O)(=O)N3CCCCCC3)c2)o1` is 1150 s. The figure for `CCn1ccc2c(cc(C(=O)Nc3cc(OC)ccc3OC)n2C)c1=O` is 746 s.

For the compound `O=c1[nH]c2ccc(NCc3cccc(Cl)c3Cl)cc2[nH]1`, the RP-LC retention time came out at 728 s.

Consider `CCN1C(=O)COc2ccc(-c3noc(C4(c5ccccc5)CC4)n3)cc21`, for which the RP-LC retention time is 991 s. The figure for `CCNC(=O)C1CCN(c2cc(SCC(=O)Nc3ccc(C(=O)OCC)cc3)ncn2)CC1` is 725 s; for `COC(=O)c1[nH]c(C)c(C(=O)C(C)N(C(=O)c2ccc(C)cc2)C2CCCCC2)c1C` (centres undefined) it is 1050 s; for `CCCn1c(-c2cccc(C(=O)NCc3cccs3)c2)nc2cccnc21` it is 782 s.

As for `O=C(c1cnn(-c2ccccc2)n1)N1CCN(C(=O)C2CC2c2ccc(F)cc2)CC1` (centres undefined), the RP-LC retention time was determined as 898 s. The figure for `COc1ccc(C(=O)N2CCN(c3ccc(=O)n(-c4cccc(Cl)c4)n3)CC2)cc1OC` is 784 s.

The compound `CCOc1ccc(S(=O)(=O)N2CCCC(C(=O)NCCCOC)C2)cc1C` (centres undefined) registered an RP-LC retention time of 847 s. With `COc1cc(OC)c(NC(=O)Cn2ccn3nc(-c4ccccc4)c(CO)c3c2=O)cc1Cl`, the RP-LC retention time amounted to 849 s.

Turning to `COc1ccc2c(c1)CCN(C(=O)CNC(=O)c1ccc(=O)[nH]c1)C2`, the RP-LC retention time is 583 s. `Cc1cccc(CNC(=O)c2cc3n(n2)CC(C)(C(=O)NCCC(C)C)N(C)C3=O)c1` (centres undefined) gave an RP-LC retention time of 801 s. The figure for `O=C(Cn1c(=O)cc(C(=O)N2CCCCC2)c2ccccc21)NC1CCCCC1` is 753 s; for `CS(=O)(=O)N1CCCc2cc(C(=O)Nc3ccc(Br)cc3F)ccc21` it is 951 s. The figure for `CC(C)c1noc(-c2ccc(-n3cnc(C(=O)N4CCc5ccccc5C4)c3)nc2)n1` is 1010 s.

`O=C(NC1CC1)C1CCN(S(=O)(=O)c2cc(-c3noc(C4CC4)n3)cs2)CC1` returned an RP-LC retention time of 790 s. The figure for `Cc1nc(-c2ccc3c(c2)CCN3C(=O)COc2ccc(Cl)cc2)no1` is 976 s; for `Cc1cnc(CC2CCN(C(=O)C(C)C)C2)n1C1CC1` (centres undefined) it is 557 s.

`CCOC(=O)C1=C(C)NC2=C(C(=O)C(C(=O)OC)C(C)C2)C1c1ccccc1Cl` (centres undefined) yielded an RP-LC retention time of 965 s.

Turning to `O=C(C1CCN(c2ncnc3c2oc2ccccc23)CC1)N1CCCC1`, the RP-LC retention time worked out at 654 s. The figure for `CO[C@@H]1C=C2CCN(C)[C@@H]2C2c3cc4c(cc3C(=O)O[C@H]21)OCO4` (some centres undefined) is 636 s; for `Cc1nc(CSc2nc3cc([N+](=O)[O-])ccc3s2)cs1` it is 916 s; for `CCC1Cn2c(C(=O)NCCc3c[nH]c4ccccc34)cc3c(Cl)ccc(c32)O1` (centres undefined) it is 1220 s. For `Cc1nc(C)c(C(=O)NC2CCN(c3ccc(=O)n(CCOc4ccccc4)n3)C2)s1` (centres undefined), the RP-LC retention time was determined as 703 s. For `O=C(NCCc1c[nH]c2ccccc12)c1cc(=O)c(OCc2ccc(F)cc2)co1`, the RP-LC retention time stood at 765 s. The figure for `CCN(CC)CCNC(=O)CC1Sc2ccccc2NC1=O` (centres undefined) is 591 s; for `Cc1cc(F)ccc1NS(=O)(=O)c1ccc2c(c1)C(=O)N(C)c1ncccc1O2` it is 924 s.

`CCc1nnc2nc(N3CCN(C(=O)COc4ccc(Cl)cc4)CC3)cc(C)n12` returned an RP-LC retention time of 648 s. The figure for `CN(C)CC(=O)N1CCC(Oc2nccnc2N2CCOCC2)C1` (centres undefined) is 561 s. In the case of `CSc1ccc(CCNC(=O)C2CCCN(C(=O)Cc3cccc4ccccc34)C2)cc1` (centres undefined), the RP-LC retention time amounted to 971 s. The figure for `Cc1cc2c(cc1S(=O)(=O)N1CCCC1C(=O)NCc1ccccc1)OCC(=O)N2` (centres undefined) is 721 s. The figure for `CCc1ccc(NC(=O)C2CCN(S(C)(=O)=O)c3ccccc3O2)cc1` (centres undefined) is 912 s; for `COc1cc(Cl)ccc1C(=O)N1CCN(c2ccc(-c3nc(C)c(C)s3)cn2)CC1` it is 950 s. `Cn1c(=O)c(N2CCC(C(=O)NCCN3CCCCCC3)CC2)nc2cccnc21` displayed an RP-LC retention time of 611 s. The figure for `O=C(Nc1ccc(Br)cc1F)C1CCN(C(=O)c2cc(-c3ccncc3)n[nH]2)CC1` is 632 s; for `Cc1c(CNCc2ccccn2)c(C(=O)O)c(C)n1Cc1ccc(F)cc1` it is 670 s; for `CCN(CC)c1ccc(NC(=O)C2CCCN(c3nc4ccccc4nc3C(F)(F)F)C2)c(C)c1` (centres undefined) it is 825 s.

As to `CCCC(=O)OCCCNc1nc(-c2ccc(Cl)cc2)nc2ccccc12`, the RP-LC retention time came out at 813 s. The figure for `COc1ccc(-c2noc(C3CCCN3C(=O)Nc3cccc(C)c3C)n2)cc1` (centres undefined) is 858 s. The figure for `COc1cc(NS(=O)(=O)c2cc3n(c2)CCCN(C)C3=O)cc(OC)c1` is 672 s; for `COc1ccc(-c2noc(C3CC(=O)N(c4ccc5c(c4)OCO5)C3)n2)cc1OC` (centres undefined) it is 886 s. The figure for `CC(C)CCSc1nnc2c(S(=O)(=O)N3CCOCC3)cccn12` is 810 s; for `COc1ccc(-c2ncc3c(=O)n(CC(=O)Nc4cc(OC)cc(OC)c4)cnc3n2)cc1` it is 854 s; for `CCN(CC)CCNC(=O)c1cc2cc(S(=O)(=O)N(C)C)ccc2n1CC` it is 633 s. On to `CCNC(=O)C1Cn2cccc2C(=O)N1C` (centres undefined), for which the RP-LC retention time is 569 s. The figure for `O=C(c1cnccn1)N1CCC(F)(F)C(COCC2CC2)C1` (centres undefined) is 786 s; for `COc1ccc(-c2nc(CCS(=O)(=O)c3ccc(C)cc3)no2)cc1OC` it is 904 s; for `Cc1csc(COc2ccc(C(=O)NC(C)CCc3ccccc3)cc2)n1` (centres undefined) it is 595 s. Consider `Cc1ccc(C)c(C2=NC3(CCN(C(C)C)CC3)NC(c3cc(Cl)ccc3O)C2)c1` (centres undefined), for which the RP-LC retention time amounted to 679 s. In the case of `CCOc1cccc(CNC(=O)c2cn3cc(Cl)ccc3n2)c1`, the RP-LC retention time came to 886 s. For the compound `O=C(NCc1ccco1)c1ccc(NC(=O)C2CC2)cc1N1CCCCCC1`, the RP-LC retention time was 584 s. Take `COc1ccc(C2C(C(=O)NCc3ccco3)c3cc(OC)c(OC)cc3C(=O)N2C)cc1` (centres undefined): the RP-LC retention time was found to be 758 s. The figure for `CC(C)Cn1cc(S(=O)(=O)Nc2cccc(C#N)c2)c2cccnc21` is 916 s; for `CC(C)Cn1cc(CCNS(=O)(=O)c2ccc(Cl)cc2)c2cccnc21` it is 993 s. The figure for `Cc1cc(N2CCOCC2)nc(N2CCN(C(=O)c3ccc(-c4ccccc4)cc3)CC2)n1` is 720 s; for `CC(=O)Nc1nsc(N2CCC(C(=O)N3CCN(c4ccccc4F)CC3)CC2)n1` it is 695 s. The figure for `COCCNC(=O)c1cc2occc2c(Nc2ccc(Br)c(C)c2)n1` is 1040 s; for `Cc1cc(NC(=O)CCc2nc(-c3ccc(N4CCCC4)cc3)no2)ccc1Br` it is 1230 s; for `CCn1c(=O)c2c(nc3n2CC(C)CN3c2ccc(Br)cc2)n(C)c1=O` (centres undefined) it is 954 s.

With `COc1ccc(-c2nc3ccccc3c3nnc(SCc4cn5ccccc5n4)n23)cc1`, the RP-LC retention time stood at 742 s. The figure for `Cc1nc(CNC(=O)[C@H]2CCCN2S(=O)(=O)c2cccc(C(F)(F)F)c2)cs1` is 787 s. The figure for `CCc1nc2c(c(=O)n1CC(=O)Nc1ccccc1)CN(Cc1ccccc1)CC2` is 638 s; for `Cc1cccc(NS(=O)(=O)c2c[nH]c3ncccc23)c1` it is 726 s. Regarding `CCN(CC)CCCNc1ccc(-c2nc(-c3ccc(OC)cc3)no2)cn1`, the RP-LC retention time was 681 s.

Compound `O=c1cc(Cn2nc3c(-c4nc(-c5ccccc5)no4)cccn3c2=O)nc2ccccn12` displayed an RP-LC retention time of 740 s. The figure for `O=C(NC1CC1)c1ccc(OCC2CCCN(C(=O)c3cc(F)ccc3F)C2)cc1` (centres undefined) is 820 s. The figure for `COC(=O)c1ccc2c(c1)nnn2Cc1cccc(OC)c1` is 880 s; for `O=C(Nc1cccn2nc(C3CCC3)nc12)c1ccccn1` it is 961 s. The figure for `CCCN1C(=O)COc2ccc(-c3csc(NC(=O)C4CCCO4)n3)cc21` (centres undefined) is 896 s; for `O=C(NCc1ccc(N2CCCC2)nc1)c1ccc(Cl)s1` it is 634 s; for `Cc1cc(NC(=O)c2cc3c(=O)n4cccc(C)c4nc3s2)no1` it is 792 s.
